Reference: PMC10518255, “A first-in-class pan-lysyl oxidase inhibitor impairs stromal remodeling and enhances gemcitabine response and survival in pancreatic cancer” (Nature Cancer, 2023)
Several values for one entry are separate records, joined by “and”; a condition that tells them apart may be missing. Equal entries are not always repeated.

Legend:
APMA human PDX tumors [1] = test: APMA human PDX model, picrosirius red birefringence (Extended Data Fig. 5i); assay type: in vivo, mouse; conditions: for Quantification of green birefringent (nascent) collagen fibres: Extended Data 5I, human PDXs at endpoint, individual animals
Method: Subcutaneous PDX studies were performed by implanting early passage PDX pieces (~4 mm^3) or TKCC10 CCs (1.5 × 10^6 cells per mouse in 100 μl PBS/Matrigel 1:1) into female (PDX) or male (TKCC10) 8-week-old immunocompromised nude Balb/c-Fox1nuAusb mice subcutaneously on the left flank. For the duration of the study, mice were kept in conventional caging with environmental enrichment, access to standard chow, water ad libitum and 12-h light–dark cycle at ambient temperature and humidity. Treatment began when tumors reached 150 mm^3, where each mouse was randomized into a treatment group and administered gemcitabine HCl (100 mg kg^−1 in saline) (Jomar Life Research) or vehicle control (0.9% saline) by i.p. injection twice weekly on day 2 and 4 of the treatment cycle until an ethical end point was reached. These included maximal tumor mass ≥10% of body weight, weight loss ≥20% from maximum body weight or tumor interfering with mobility and affecting access to food and water. Animals with non-tumor-related complications that led to a premature end point were censored. […] Tumor size was monitored every second day by calipers. Tumor volume was calculated using the formula (length × width^2)/2. […]
For assessment of picrosirius red staining in KPC and APMA patient tumors, five representative regions of interest per section were analyzed for both brightfield and polarized light by a blinded reviewer using in-house automated analysis scripts as described previously[28],[34],[58] […]
Extended Data Fig. 5 PXS-5505 in combination with gemcitabine in vivo. a. […] Signal is defined as the enzyme activity in the aorta, while noise is measured in the presence of a high concentration (300 µM) BAPN to abolish any lysyl oxidase family activity. […] FITC-dextran (molecular weight: 10 kDa) signal quantification from KPC tumor end point from each treatment group (vehicle n = 3 biologically independent animals, PXS-5505 n = 5 biologically independent animals, Gem n = 5 biologically independent animals, PXS-5505 + Gem n = 5 biologically independent animals). […] P-values determined by Welchs t-test. […]

APMA human PDX tumors [2] = test: APMA human PDX model, bulk modulus by unconfined compression (Extended Data Fig. 5j); assay type: in vivo, mouse; set-up: Bulk modulus (stiffness) by unconfined compression testing: unit: kPa (bulk elastic modulus, slope of stress–strain curve); conditions: for Bulk modulus (stiffness) by unconfined compression testing: Extended Data 5J, endpoint human PDX tumours (second model), individual animals
Method: Unconfined compression of in vivo tissue samples was carried out on 2–3-mm cross-sectional slices using a TA Instruments Dynamic Hybrid Rheometer (DHR-3, TA Instruments). Tissue samples were placed between upper and lower parallel plate geometries. A constant linear compressive rate of 5 µm s^−1 was applied to the samples and axial force (N) and gap (mm) were collected every 0.01 s. Data were processed and a stress–strain curve for each replicate was obtained. Bulk elastic modulus (kPa) was obtained as the gradient of the linear region of the stress–strain curve corrected for cross-sectional area of sample. Data points represent individual biological replicates.
Subcutaneous PDX studies were performed by implanting early passage PDX pieces (~4 mm^3) or TKCC10 CCs (1.5 × 10^6 cells per mouse in 100 μl PBS/Matrigel 1:1) into female (PDX) or male (TKCC10) 8-week-old immunocompromised nude Balb/c-Fox1nuAusb mice subcutaneously on the left flank. For the duration of the study, mice were kept in conventional caging with environmental enrichment, access to standard chow, water ad libitum and 12-h light–dark cycle at ambient temperature and humidity. […] Tumor size was monitored every second day by calipers. Tumor volume was calculated using the formula (length × width^2)/2. […]
Extended Data Fig. 5 PXS-5505 in combination with gemcitabine in vivo. a. […] Signal is defined as the enzyme activity in the aorta, while noise is measured in the presence of a high concentration (300 µM) BAPN to abolish any lysyl oxidase family activity. […] FITC-dextran (molecular weight: 10 kDa) signal quantification from KPC tumor end point from each treatment group (vehicle n = 3 biologically independent animals, PXS-5505 n = 5 biologically independent animals, Gem n = 5 biologically independent animals, PXS-5505 + Gem n = 5 biologically independent animals). […] P-values determined by Welchs t-test. […] Quantification of red birefringent (mature) collagen fibers from human PDXs at end point after 3 cycles of treatment, treated as indicated. […] P values determined by Welchs t-test. g. […]

[3] = APMA human PDX, three rounds of treatment

| SMILES | deposition of collagen I (picrosirius red birefringence) (APMA human PDX tumors [1]; [3]) | Quantification of green birefringent (nascent) collagen fibres (APMA human PDX tumors [1]) | tumor stiffness (APMA human PDX tumors [2]; [3]) | Bulk modulus (stiffness) by unconfined compression testing (APMA human PDX tumors [2]) |
| --- | --- | --- | --- | --- |
| Nc1ccn([C@@H]2O[C@H](CO)[C@@H](O)C2(F)F)c(=O)n1 [Gem, gemcitabine] | increase in the deposition of collagen I | 672.333 and 613 and 417.333 and 643.667 and 776 and 904.333 and 1865.67 and 529.667 and 397.667 and 278 | increase in tumor stiffness | 269.794 and 256.26 and 76.734 and 111.802 and 206.587 and 133.731 and 307.593 and 168.407 and 179.416 and 246.898 |
| Cl.Cl.NC/C=C(\F)CS(=O)(=O)c1cccc2cccnc12.O [PXS-5505, (Z)-3-fluoro-4-(quinolin-8-ylsulfonyl)but-2-en-1-amine dihydrochloride monohydrate] |  | 61.6667 and 1138 and 246 and 184 and 80.3333 and 99.6667 and 1125.33 and 424.667 and 169.333 and 108 |  | 1.617 and 12.779 and 4.886 and 20.468 and 19.194 and 15.624 and 4.142 and 7.216 and 19.443 |
